Patent US4703058A, “β-methylene furanethanamines and use as anti-hypertensive agents” (Merrell Dow Pharmaceuticals Inc., priority 1986, dated 1987)

How the values were obtained:
[1] = target: T1, dopamine β-hydroxylase (DBH) (Bos taurus, UniProt P15101); assay: DBH inhibitory activity - in vitro (time-dependent inactivation; tyramine as substrate, oxygen uptake by polarographic electrode); assay type: biochemical
T1 sequence (P15101 1-610): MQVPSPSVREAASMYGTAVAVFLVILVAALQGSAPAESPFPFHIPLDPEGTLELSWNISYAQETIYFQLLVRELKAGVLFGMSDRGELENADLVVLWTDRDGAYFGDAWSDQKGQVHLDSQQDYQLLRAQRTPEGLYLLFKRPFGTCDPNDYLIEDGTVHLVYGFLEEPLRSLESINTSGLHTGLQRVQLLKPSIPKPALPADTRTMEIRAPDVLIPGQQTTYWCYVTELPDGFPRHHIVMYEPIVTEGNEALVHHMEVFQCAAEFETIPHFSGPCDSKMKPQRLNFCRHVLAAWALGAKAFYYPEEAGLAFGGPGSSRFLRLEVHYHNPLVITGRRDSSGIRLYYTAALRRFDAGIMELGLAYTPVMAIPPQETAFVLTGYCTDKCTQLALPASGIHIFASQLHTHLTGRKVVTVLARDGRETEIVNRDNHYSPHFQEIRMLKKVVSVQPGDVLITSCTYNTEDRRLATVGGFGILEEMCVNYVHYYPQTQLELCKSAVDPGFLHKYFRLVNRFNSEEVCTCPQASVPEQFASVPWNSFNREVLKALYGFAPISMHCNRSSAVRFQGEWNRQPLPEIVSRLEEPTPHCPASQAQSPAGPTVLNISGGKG
Protocol: The dopamine β-hydroxylase inhibitory properties of the compounds of this invention can readily be determined by standard and well known procedures such as those procedures set forth in U.S. Pat. No. 4,415,191. For example, determination of whether the DBH inhibition allows time-dependent kinetics is exemplified by the procedure wherein enzymatic oxygenation by DBH is determined in aqueous solution in the presence of molecular oxygen, an electron donor such as ascorbate, and the necessary cofactors for the enzyme at a pH of 5 and a temperature of 20°-40° C., preferrably 37° C. The test compound is added at the desired concentration, and the system is incubated. At different time intervals, aliquots are taken and DBH activity is measured using tyramine as the substrate and the reaction followed by measuring the oxygen uptake using a polarographic electrode and an oxygen monitor by the method of S. May et al., J. Biol. Chem. 256, 2258 (1981). The inhibition constants for the inactivation of DBH by each compound are then determined by conventional procedures such as the method of Kitz and Wilson, J. Biol. Chem. 237, 3245 (1962). When the compound shown in Table I was tested according to the above described procedure, the DBH inhibitory activity increased as a function of the time of incubation. The initial rate of decrease of activity increased with increasing concentration of inhibitor. The results in Table I indicate that β-methylene-2-furanethanamine is potent as illustrated by the rapid rate of inactivation (kinact) and low inhibition contant (KI).

[2] = tested on: hypertensive rats; assay: Antihypertensive activity - in vivo (hypertensive rats, blood pressure monitored continuously)
Protocol: The ability of the compounds of this invention to lower blood pressure can be determined in vivo using hypertensive rats according to standard and well known procedures. The test compound is administered intraperitoneally (ip) or orally (po) to rats and the blood pressure monitored continuously. Since DBH is a major enzyme in the synthetic pathway of the catecholamines, it would be expected that the presence of an inhibitor would act to decrease the amount of catecholamines produced, and thereby have an antihypertensive effect.

DBH inhibition, result in words (potency) ([1]; in words, from Table I): potent | Ki ([1]; inactivation of DBH, Kitz and Wilson method, pH 5, 20°-40° C., preferably 37° C., tyramine substrate): 8 mM | kinact ([1]; rate of inactivation of DBH, Kitz and Wilson method, pH 5, 20°-40° C., preferably 37° C., tyramine substrate): 6.67e-05 s⁻¹
Structure (SMILES): C=C(CN)c1ccco1 [β-Methylene-2-Furanethanamine]
Maximum % Change Mean Blood Pressure ([2]; 10 mg/kg (ip)): 18% | Maximum % Change Mean Blood Pressure ([2]; 30 mg/kg (ip)): 32%
